What was measured:
Format in all cases: functional, cell-based
[1] = Cytotoxicity against human SGC7901 cells assessed as growth inhibition after 48 hrs by MTT assay; details: SGC-7901, 48 h
[2] = system: KB; test: Cytotoxicity against human KB cells assessed as growth inhibition after 48 hrs by MTT assay
[3] = Cytotoxicity against human HT1080 cells assessed as growth inhibition after 48 hrs by MTT assay; details: HT-1080, 48 h

Row | Compound | IC50 [1] | IC50 [2] | IC50 [3]
1 | CC[C@H]1OC(=O)[C@H](C)[C@@H](O[C@H]2C[C@@](C)(OC)[C@@H](O)[C@H](C)O2)[C@H](C)[C@@H](O[C@@H]2O[C@H](C)C[C@H](N(C)CCN(C)[C@H]3C[C@@H](C)O[C@@H](O[C@@H]4[C@@H](C)[C@H](O[C@H]5C[C@@](C)(OC)[C@@H](O)[C@H](C)O5)[C@@H](C)C(=O)O[C@H](CC)[C@@](C)(O)[C@H](O)[C@@H](C)/C(=N\OCOCCOC)[C@H](C)C[C@@]4(C)O)[C@@H]3O)[C@H]2O)[C@](C)(OC)C[C@@H](C)/C(=N/O)[C@H](C)[C@@H](O)[C@]1(C)O | 22.1 µM | 14.7 µM | 6.3 µM
2 | CC[C@H]1OC(=O)[C@H](C)[C@@H](O[C@H]2C[C@@](C)(OC)[C@@H](O)[C@H](C)O2)[C@H](C)[C@@H](O[C@@H]2O[C@H](C)C[C@H](N(C)CC(=O)N(C)[C@H]3C[C@@H](C)O[C@@H](O[C@@H]4[C@@H](C)[C@H](O[C@H]5C[C@@](C)(OC)[C@@H](O)[C@H](C)O5)[C@@H](C)C(=O)O[C@H](CC)[C@@](C)(O)[C@H](O)[C@@H](C)C(=O)[C@H](C)C[C@@]4(C)O)[C@@H]3O)[C@H]2O)[C@](C)(O)C[C@@H](C)C(=O)[C@H](C)[C@@H](O)[C@]1(C)O | 26.5 µM | > 100 µM | > 100 µM
3 | CC[C@H]1OC(=O)[C@H](C)[C@@H](O[C@H]2C[C@@](C)(OC)[C@@H](O)[C@H](C)O2)[C@H](C)[C@@H](O[C@@H]2O[C@H](C)C[C@H](N(C)CCN(C)[C@H]3C[C@@H](C)O[C@@H](O[C@@H]4[C@@H](C)[C@H](O[C@H]5C[C@@](C)(OC)[C@@H](O)[C@H](C)O5)[C@@H](C)C(=O)O[C@H](CC)[C@@](C)(O)[C@H](O)[C@@H](C)C(=O)[C@H](C)C[C@@]4(C)O)[C@@H]3O)[C@H]2O)[C@](C)(O)C[C@@H](C)C(=O)[C@H](C)[C@@H](O)[C@]1(C)O | 18.3 µM | 37.3 µM | > 100 µM
4 | CCCCCO/N=C1/[C@H](C)C[C@@](C)(OC)[C@H](O[C@@H]2O[C@H](C)C[C@H](N(C)CCN(C)[C@H]3C[C@@H](C)O[C@@H](O[C@@H]4[C@@H](C)[C@H](O[C@H]5C[C@@](C)(OC)[C@@H](O)[C@H](C)O5)[C@@H](C)C(=O)O[C@H](CC)[C@@](C)(O)[C@H](O)[C@@H](C)/C(=N\OCCCCC)[C@H](C)C[C@@]4(C)OC)[C@@H]3O)[C@H]2O)[C@@H](C)[C@H](O[C@H]2C[C@@](C)(OC)[C@@H](O)[C@H](C)O2)[C@@H](C)C(=O)O[C@H](CC)[C@@](C)(O)[C@H](O)[C@H]1C | 30.8 µM | > 100 µM | 54.1 µM
5 | CC[C@H]1OC(=O)[C@H](C)[C@@H](O)[C@H](C)[C@@H](O[C@@H]2O[C@H](C)C[C@H](N(C)CCN(C)[C@H]3C[C@@H](C)O[C@@H](O[C@@H]4[C@@H](C)[C@H](O[C@H]5C[C@@](C)(OC)[C@@H](O)[C@H](C)O5)[C@@H](C)C(=O)O[C@H](CC)[C@@](C)(O)[C@H](O)[C@@H](C)C(=O)[C@H](C)C[C@@]4(C)OC)[C@@H]3O)[C@H]2O)[C@](C)(OC)C[C@@H](C)C(=O)[C@H](C)[C@@H](O)[C@]1(C)O | > 100 µM | 97 µM | > 100 µM
6 | C=CCO/N=C1/[C@H](C)C[C@@](C)(O)[C@H](O[C@@H]2O[C@H](C)C[C@H](N(C)CCN(C)[C@H]3C[C@@H](C)O[C@@H](O[C@@H]4[C@@H](C)[C@H](O[C@H]5C[C@@](C)(OC)[C@@H](O)[C@H](C)O5)[C@@H](C)C(=O)O[C@H](CC)[C@@](C)(O)[C@H](O)[C@@H](C)/C(=N\OCC=C)[C@H](C)C[C@@]4(C)O)[C@@H]3O)[C@H]2O)[C@@H](C)[C@H](O[C@H]2C[C@@](C)(OC)[C@@H](O)[C@H](C)O2)[C@@H](C)C(=O)O[C@H](CC)[C@@](C)(O)[C@H](O)[C@H]1C | > 100 µM | 17.5 µM | 27.7 µM
7 | CC[C@H]1OC(=O)[C@H](C)[C@@H](O)[C@H](C)[C@@H](O[C@@H]2O[C@H](C)C[C@H](N(C)CCN(C)[C@H]3C[C@@H](C)O[C@@H](O[C@@H]4[C@@H](C)[C@H](O)[C@@H](C)C(=O)O[C@H](CC)[C@@](C)(O)[C@H](O)[C@@H](C)/C(=N\OCOCCOC)[C@H](C)C[C@@]4(C)O)[C@@H]3O)[C@H]2O)[C@](C)(O)C[C@@H](C)/C(=N/OCOCCOC)[C@H](C)[C@@H](O)[C@]1(C)O | > 100 µM | > 100 µM | > 100 µM
8 | CC[C@H]1OC(=O)[C@H](C)[C@@H](O[C@H]2C[C@@](C)(OC)[C@@H](O)[C@H](C)O2)[C@H](C)[C@@H](O[C@@H]2O[C@H](C)C[C@H](N(C)CC(=O)N(C)[C@H]3C[C@@H](C)O[C@@H](O[C@@H]4[C@@H](C)[C@H](O[C@H]5C[C@@](C)(OC)[C@@H](O)[C@H](C)O5)[C@@H](C)C(=O)O[C@H](CC)[C@@](C)(O)[C@H](O)[C@@H](C)/C(=N/OCOCCOC)[C@H](C)C[C@@]4(C)O)[C@@H]3O)[C@H]2O)[C@](C)(O)C[C@@H](C)/C(=N/OCOCCOC)[C@H](C)[C@@H](O)[C@]1(C)O | 13.3 µM | 28.7 µM | 33.4 µM
9 | CC[C@H]1OC(=O)[C@H](C)[C@@H](O[C@H]2C[C@@](C)(OC)[C@@H](O)[C@H](C)O2)[C@H](C)[C@@H](O[C@@H]2O[C@H](C)C[C@H](N(C)CC(=O)N(C)[C@H]3C[C@@H](C)O[C@@H](O[C@@H]4[C@@H](C)[C@H](O[C@H]5C[C@@](C)(OC)[C@@H](O)[C@H](C)O5)[C@@H](C)C(=O)O[C@H](CC)[C@@](C)(O)[C@H](O)[C@@H](C)C(=O)[C@H](C)C[C@@]4(C)OC)[C@@H]3O)[C@H]2O)[C@](C)(OC)C[C@@H](C)C(=O)[C@H](C)[C@@H](O)[C@]1(C)O | 16.2 µM | > 100 µM | 30.9 µM
10 | CC[C@H]1OC(=O)[C@H](C)[C@@H](O[C@H]2C[C@@](C)(OC)[C@@H](O)[C@H](C)O2)[C@H](C)[C@@H](O[C@@H]2O[C@H](C)C[C@H](N(C)C(=O)CN(C)[C@H]3C[C@@H](C)O[C@@H](O[C@@H]4[C@@H](C)[C@H](O[C@H]5C[C@@](C)(OC)[C@@H](O)[C@H](C)O5)[C@@H](C)C(=O)O[C@H](CC)[C@@](C)(O)[C@H](O)[C@@H](C)/C(=N\OCOCCOC)[C@H](C)C[C@@]4(C)O)[C@@H]3O)[C@H]2O)[C@](C)(OC)C[C@@H](C)C(=O)[C@H](C)[C@@H](O)[C@]1(C)O | > 100 µM | > 100 µM | > 100 µM
11 | CC[C@H]1OC(=O)[C@H](C)[C@@H](O[C@H]2C[C@@](C)(OC)[C@@H](O)[C@H](C)O2)[C@H](C)[C@@H](O[C@@H]2O[C@H](C)C[C@H](N(C)CCN(C)[C@H]3C[C@@H](C)O[C@@H](O[C@@H]4[C@@H](C)[C@H](O[C@H]5C[C@@](C)(OC)[C@@H](O)[C@H](C)O5)[C@@H](C)C(=O)O[C@H](CC)[C@@](C)(O)[C@H](O)[C@@H](C)/C(=N\OCOCCOC)[C@H](C)C[C@@]4(C)O)[C@@H]3O)[C@H]2O)[C@](C)(O)C[C@@H](C)/C(=N/O)[C@H](C)[C@@H](O)[C@]1(C)O | 7.2 µM | 18.6 µM | 16.2 µM
12 | CC[C@H]1OC(=O)[C@H](C)[C@@H](O)[C@H](C)[C@@H](O[C@@H]2O[C@H](C)C[C@H](N(C)CCN(C)[C@H]3C[C@@H](C)O[C@@H](O[C@@H]4[C@@H](C)[C@H](O)[C@@H](C)C(=O)O[C@H](CC)[C@@](C)(O)[C@H](O)[C@@H](C)[C@@H](O)[C@H](C)C[C@@]4(C)O)[C@@H]3O)[C@H]2O)[C@](C)(O)C[C@@H](C)[C@H](O)[C@H](C)[C@@H](O)[C@]1(C)O | > 100 µM | > 100 µM | > 100 µM

Source: ChEMBL document CHEMBL3217717, “Synthesis and antiproliferative activity of novel erythromycin derivatives” (Medchemcomm, 2010)
